Reference: patent US20070249637A1, “Inhibitors Of Hepatitis C Virus Protease, And Compositions And Treatments Using The Same” (priority 2004, published 2007)
Read-outs that look alike come from different tables or passages of the source.

Details: rcm bond, 15-membered ring, Grubbs II (0.15 equiv), DCM, 5.0 mM, 40.0 °C, 2.0 h

Structure (SMILES)	ring closure, isolated yield (from C=CCCCCC[C@H](NC(=O)OC(C)(C)C)C(=O)N1C[C@H](Oc2nc(-c3ccccn3)nc3ccsc23)C[C@H]1C(=O)N[C@]1(C(=O)OC)C[C@H]1C=C) [%]	ring closure, isolated yield (from C=CCCCCCC(NC(=O)OC(C)(C)C)C(=O)N1CC(Oc2nc(-c3cc(C)nn3C)nc3ccsc23)CC1C(=O)NC1(C(=O)OC)CC1C=C) [%]
COC(=O)[C@@]12C[C@H]1/C=C\CCCCC[C@H](NC(=O)OC(C)(C)C)C(=O)N1C[C@H](Oc3nc(-c4ccccn4)nc4ccsc34)C[C@H]1C(=O)N2	25	
COC(=O)[C@@]12C[C@H]1/C=C\CCCCC[C@H](NC(=O)OC(C)(C)C)C(=O)N1C[C@H](Oc3nc(-c4cc(C)nn4C)nc4ccsc34)C[C@H]1C(=O)N2		38
